In PMC12916490 (Molecular Psychiatry, 2025):
pEC50: −log10 of the molar value. Read-outs that look alike come from different tables or passages of the source.

How the values were obtained:
[1] = biological target: T1, hTAAR1 (Homo sapiens, UniProt Q96RJ0); assay: Functional activity at human TAAR1 (cAMP); format: cell-based; settings: for Emax: mean (95% CI), β-phenylethylamine as maximal response, read-out: hTAAR1 Activation efficacy Emax
T1 construct: expressed in transfected cells
T1 sequence (Q96RJ0 1-339): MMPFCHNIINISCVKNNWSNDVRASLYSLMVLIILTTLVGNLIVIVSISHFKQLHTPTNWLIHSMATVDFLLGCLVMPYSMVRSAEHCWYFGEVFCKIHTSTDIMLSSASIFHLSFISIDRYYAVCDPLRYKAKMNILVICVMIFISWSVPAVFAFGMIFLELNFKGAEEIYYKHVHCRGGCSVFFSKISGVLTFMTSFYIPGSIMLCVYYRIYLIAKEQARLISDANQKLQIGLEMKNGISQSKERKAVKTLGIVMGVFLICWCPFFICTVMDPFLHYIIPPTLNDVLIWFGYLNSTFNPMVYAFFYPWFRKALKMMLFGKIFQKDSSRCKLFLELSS
Description: Activity at the human trace amine-associated receptor 1 (hTAAR1) was determined as previously described. More information can be found in the Supplementary information.
Then, the obtained RA values were used to calculate the bias factor (β) for each pathway combination. […]
pathway 1 over pathway 2. Brown-Forsythe and Welch ANOVA analyses were applied to estimate the statistical probability that β is different from zero.
3.3 Functional activity at the human TAAR1 […]
receptor 1 (hTAAR1) were generated by transfection with Lipofectamine 2000 (Invitrogen, Zug, Switzerland). The cells were harvested and pelleted by centrifugation at 900 rpm for 3 min at room temperature. The supernatant was then removed, and the cell pellet was resuspended in fresh culture medium. The cells were plated into 96 -well plates (100 μL, containing 80,000 cells per well) and incubated […]
The culture medium was removed, and the cells were washed once with 50 μL phosphate buffered saline without Ca2+ and Mg2+. Thereafter, 90 μL of Krebs -Ringer bicarbonate buffer (Sigma- […]
to 10 μM cAMP) was included on each plate. In addition, a reference plate containing RO5256390, β-phenylethylamine, and p-tyramine was included in each experiment. Test compound solution, β-phenylethylamine (as maximal response), or basal control were added at a volume of 30 μL, and the cells […]
Afterwards, the cells were lysed with 50 μL of detection mix solution […]
under heavy shaking. Fluorescence was then measured.
3.4 Plasma and brain tissue analysis
3.4.1 Analytical standards […]
to spike blank plasma or tissue homogenate at calibration standards of 1, 2.5, 5, 10, 25, 50, 100, 250, and […]
Extraction was performed by protein precipitation with 150 µL of acetonitrile added to 50 µL plasma in a 2-mL centrifuge tube. The samples were then vortexed for 10 s and shaken for 3 min at […]

[2] = In vivo microdialysis (striatum) with plasma and brain levels after co-administration of DOM and DOAM; design: species or system mouse; settings: 0.5 mg/kg s.c. each; for Dialysate concentration (striatal microdialysis) after co-administration of DOM and DOAM: dialysate collected 30 min post injection, detection limit 0.04 ng/mL; for concentration at 30 min: both sexes, C57BL/6JRj, mouse, subcutaneous, 30 min post injection, mice
Description: Microdialysis experiments were conducted as previously reported with minor modifications; involved procedures were approved by the Cantonal Veterinary Office Basel-Stadt, in accordance with Swiss law. Three male and two female C57BL/6JRj mice (Janvier Labs, France) aged 11–14 weeks were used. During stereotactic surgeries, a guide cannula (CMA7; CMA Microdialysis AB, Sweden) directed to the striatum was implanted at 0.6 AP, 1.8 ML and -1.5 DV from bregma and fixed with dental cement. On the day of microdialysis, a microdialysis probe (CMA7, 3-mm probe length) was inserted into the guide cannula and perfused with artificial cerebrospinal fluid (119 mM NaCl, 11 mM D-glucose, 26.2 mM NaHCO3, 2.5 mM KCl, 1.3 mM MgCl2, 1 mM NaH2PO4, and 2.5 mM CaCl2) at 1 µL/min. The dialysate was collected for 30 min before s.c. injection of a mixture of DOM and DOAM (dissolved in DMSO/Tween80/saline; 1:1:18) yielding a dose of 0.5 mg/kg body weight for each substance. The dialysate post injection was collected for 30 min followed by decapitation under isoflurane anesthesia. Plasma obtained from trunk blood and homogenates of the forebrains (0.5 g brain tissue per 1 mL ice-cold water) were prepared for LC–MS/MS analysis. One hemisphere of the brain from each mouse was fixed in 4% paraformaldehyde, sectioned, and stained with Hoechst dye (2 µg/mL for 30 min) to confirm the placement of the microdialysis probe in the striatum. After running microdialysis in one or two mice, the recoveries of the microdialysis probes were assessed by collecting dialysate for 15 min at 1 µL/min with the probe immersed in a mixture of DOM and DOAM (1 µg/mL each; in artificial cerebrospinal fluid).
Data analysis was performed with Prism software (version 10.1.2, GraphPad Software, Boston, MA, USA). The IC50 values from the radioligand binding assays were determined by nonlinear regression, using three independent concentration-response curves fitted to a one-site model. The Cheng-Prusoff equation was used to calculate Kᵢ values for the competing ligands. EC50 values were determined by applying nonlinear regression to concentration-response curves. Bias factors (β) were calculated based on the relative intrinsic activity approach. More detailed information can be found in the Supplementary information. Mean values for total number of HTR, change in body temperature from pre to post session (Δ°C), and total distance traveled (cm) for each drug dose were compared (p < 0.05) via Welch’s ANOVA with Dunnett’s T3 post test, comparing all doses to respective vehicle controls (0 mg/kg). Welch’s ANOVA with Dunnett’s T3 post test was also used to compare drug concentrations, but the data were compared to DOM in this case. Dose–response relationships for HTR and locomotor activities were plotted using bell-shaped curve fits, while temperature change data were plotted using four-parameter non-linear regression curve fits. The ascending phase of the HTR curve for each drug was used to determine ED50 potency values from four parameter non-linear regression fits. For combined DOM and DOAM administration, the plasma, brain tissue, and brain dialysate drug concentrations were compared using paired t-tests (p < 0.05). Ratios were compared using Holm-Sidak’s post hoc test following a repeated-measures one-way ANOVA (F (1.709, 6.835) = 70.80; p < 0.0001).

[3] = tested on: mice; design: method as in ref 20 (Halberstadt et al. 2020); settings: ref 20 (Halberstadt et al. 2020), cited from earlier work; for HTR in mice ED50 (95% CI): i.p.
[4] = brain (forebrain homogenate), read-out: Brain tissue level after co-administration of DOM and DOAM
[5] = plasma, read-out: Plasma level after co-administration of DOM and DOAM

SMILES | pEC50 [1] | Emax [1] [%] | Dialysate concentration (striatal microdialysis) after co-administration of DOM and DOAM [2] [ng/mL] | concentration at 30 min [2, 4] [ng/g] | concentration at 30 min [2, 5] [ng/mL] | HTR in mice ED50 (95% CI) [3] | HTR in mice Emax [3] [total HTR count]
CCCc1cc(OC)c(CC(C)N)cc1OC.Cl (centres unmarked) [DOPR, 4-propyl-2,5-dimethoxyamphetamine hydrochloride] | 4.99 | 95 |  |  |  |  | 
CCCCCc1cc(OC)c(CC(C)N)cc1OC (centres unmarked) [DOAM, 4-amyl-2,5-dimethoxyamphetamine] | 4.66 | 86 | < 0.04 | 276 | 12 |  | 
COc1ccc(OC)c(CC(C)N)c1.Cl (centres unmarked) [2,5-DMA, 2,5-Dimethoxyamphetamine hydrochloride] | < 4.52 |  |  |  |  |  | 
COc1cc(CC(C)N)c(OC)cc1C (centres unmarked) [DOM, 4-methyl-2,5-dimethoxyamphetamine] | < 4.52 |  | 0.82 | 463 | 26 |  | 
CCCCc1cc(OC)c(CC(C)N)cc1OC (centres unmarked) [DOBU, 4-butyl-2,5-dimethoxyamphetamine] | 4.98 | 98 |  |  |  | 1.17 mg/kg | 
CCc1cc(OC)c(CC(C)N)cc1OC (centres unmarked) [DOET, 4-ethyl-2,5-dimethoxyamphetamine] |  |  |  |  |  | 0.20 (0.11–0.36) mg/kg | 122
